Assay results published in ChEMBL document CHEMBL1134244, “Design and synthesis of a new sialyl Lewis X mimetic: how selective are the selectin receptors?” (Bioorg Med Chem Lett, 2001).

What was measured:
[1] = target: T1, P-selectin (Homo sapiens, UniProt P16109); experiment: Concentration required to inhibit the interaction of Selectin P and HL-60 cells; format: cell-based
T1 sequence (P16109 whole entry): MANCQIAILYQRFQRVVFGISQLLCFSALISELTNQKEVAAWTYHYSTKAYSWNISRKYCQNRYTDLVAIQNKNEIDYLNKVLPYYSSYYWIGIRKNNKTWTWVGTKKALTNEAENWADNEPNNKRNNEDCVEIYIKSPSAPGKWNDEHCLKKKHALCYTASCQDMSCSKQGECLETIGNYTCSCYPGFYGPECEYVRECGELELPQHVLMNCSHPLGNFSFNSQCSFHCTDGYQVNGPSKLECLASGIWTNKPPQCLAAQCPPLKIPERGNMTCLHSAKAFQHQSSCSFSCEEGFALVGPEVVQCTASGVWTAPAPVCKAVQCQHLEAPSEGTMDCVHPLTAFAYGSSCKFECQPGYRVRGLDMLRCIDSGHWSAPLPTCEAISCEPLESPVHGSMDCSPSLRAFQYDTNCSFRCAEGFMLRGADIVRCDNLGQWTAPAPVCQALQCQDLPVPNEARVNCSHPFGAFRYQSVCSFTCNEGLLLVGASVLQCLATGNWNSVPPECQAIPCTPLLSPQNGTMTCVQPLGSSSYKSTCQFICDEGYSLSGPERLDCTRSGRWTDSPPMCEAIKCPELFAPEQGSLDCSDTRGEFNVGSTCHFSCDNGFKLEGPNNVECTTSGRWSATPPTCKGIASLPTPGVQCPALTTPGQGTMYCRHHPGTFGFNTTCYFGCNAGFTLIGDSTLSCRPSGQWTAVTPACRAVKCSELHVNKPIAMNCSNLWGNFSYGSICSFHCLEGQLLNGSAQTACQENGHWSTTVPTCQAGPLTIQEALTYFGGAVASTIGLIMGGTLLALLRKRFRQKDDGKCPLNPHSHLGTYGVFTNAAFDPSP

[2] = target: T2, E-selectin (Homo sapiens, UniProt P16581); experiment: Concentration required to inhibit the interaction of Selectin E and HL-60 cells; format: cell-based
T2 sequence (P16581 whole entry): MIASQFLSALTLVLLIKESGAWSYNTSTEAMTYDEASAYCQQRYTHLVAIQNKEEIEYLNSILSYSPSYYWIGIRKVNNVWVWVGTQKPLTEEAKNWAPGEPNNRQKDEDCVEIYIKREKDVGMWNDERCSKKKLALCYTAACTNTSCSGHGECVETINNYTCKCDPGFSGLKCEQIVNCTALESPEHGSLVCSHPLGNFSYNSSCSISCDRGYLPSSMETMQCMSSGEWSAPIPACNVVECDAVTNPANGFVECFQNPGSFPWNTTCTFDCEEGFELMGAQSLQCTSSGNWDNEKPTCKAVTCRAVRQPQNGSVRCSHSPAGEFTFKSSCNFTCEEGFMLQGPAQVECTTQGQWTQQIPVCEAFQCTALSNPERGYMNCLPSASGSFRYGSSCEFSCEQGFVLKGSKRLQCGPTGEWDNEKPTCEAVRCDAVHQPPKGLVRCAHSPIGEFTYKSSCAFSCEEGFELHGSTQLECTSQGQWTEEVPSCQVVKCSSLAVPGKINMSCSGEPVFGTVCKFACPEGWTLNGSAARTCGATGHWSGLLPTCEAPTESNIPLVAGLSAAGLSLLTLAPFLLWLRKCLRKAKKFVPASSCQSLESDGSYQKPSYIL

Structure (SMILES)	IC50 [1]	IC50 [2]
CC(=O)N[C@H]1[C@H]([C@H](O)[C@H](O)CO)O[C@@](O[C@H]2[C@@H](O)[C@@H](CO)O[C@@H](O[C@@H]([C@H](O[C@@H]3O[C@@H](C)[C@@H](O)[C@@H](O)[C@@H]3O)[C@H](C=O)NC(C)=O)[C@H](O)CO)[C@@H]2O)(C(=O)O)C[C@@H]1O (single isomer, unassigned; enantiomer A) [SIALYL LEWIS X]	5 mM	7 mM
CC(=O)N[C@H]1[C@H]([C@H](O)[C@H](O)CO)O[C@@](O[C@H]2[C@@H](O)[C@@H](CO)O[C@@H](O[C@@H]([C@H](O[C@@H]3O[C@@H](C)[C@@H](O)[C@@H](O)[C@@H]3O)[C@H](C=O)NC(C)=O)[C@H](O)CO)[C@@H]2O)(C(=O)O)C[C@@H]1O (single isomer, unassigned; enantiomer B) [SIALYL LEWIS X]	4.5 mM	5 mM
CC(=O)N[C@H]1[C@H]([C@H](O)[C@H](O)CO)O[C@@](O[C@H]2[C@@H](O)[C@@H](CO)O[C@@H](O[C@@H]([C@H](O[C@@H]3O[C@@H](C)[C@@H](O)[C@@H](O)[C@@H]3O)[C@H](C=O)NC(C)=O)[C@H](O)CO)[C@@H]2O)(C(=O)O)C[C@@H]1O [SIALYL LEWIS X]	5.5 mM	5 mM
